Experiment: Human HepG2 cell viability assay in 384 well format
Type: toxicity, cell-based
Parameters: dose 125 nL, time 70.5 hour; concentration not given beside the values
Details: HepG2 cells, read-out: Inhibition

Structure (SMILES)	cytotoxicity at 70.5 h [%]
O=C(N1CCCC1)N1CCn2c(Cn3cccn3)cnc2C1	-0.231
O=C1CC(c2cccnc2)C2(CCN(C(=O)N3CCOCC3)CC2)N1 (configuration not stated)	-12.4
O=C1CC(c2ccncc2)C2(CCN(C(=O)c3ccnnc3)CC2)N1 (configuration not stated)	-8.48
Cc1nc(CN2C(=O)CC[C@@H]3[C@H]2CCN3C(=O)C2CCOCC2)cs1	-7.34
Cc1nc(CN2C(=O)CC[C@@H]3[C@H]2CCN3C(=O)c2ccno2)cs1	-1.87
CN(C)C(=O)N1CCn2cc(CNC(=O)CC3CC3)nc2C1	-0.867
O=C(c1ccncc1)N1CCc2c(COCC3CC3)cncc2C1	0.493
O=C(c1cnccn1)N1CCc2c(COCC3CC3)cncc2C1	-7.37
COCC1CN(C(=O)Cc2ccc(F)cc2)Cc2ccnn2C1 (configuration not stated)	-5.52
O=C1CC(c2ccccc2)C2(CCN(C(=O)c3cnccn3)CC2)N1 (configuration not stated)	-8.06
Cc1cccc(CN2CCn3cc(CNC(=O)CC4CC4)nc3C2)n1	-5.24
Cc1noc(C)c1CN1CC[C@H](OCC2CC2)[C@@H](Cc2ccccc2)C1	3.46
c1ccc(CN2C[C@@H]3OCCN(c4cccnc4)[C@@H]3C2)nc1	-12.2
Fc1ccccc1CN1C[C@@H]2OCCN(c3ncccn3)[C@@H]2C1	-13.2
Cn1ccnc1CN1C[C@@H]2OCCN(c3ncccn3)[C@@H]2C1	-16.1
O=C(c1ccco1)N1CCO[C@@H]2CNCC[C@@H]2C1	32.1
CCC(NC(=O)c1cc(CC(C)C)nn1C)c1cccc(C)n1 (configuration not stated)	8.39
Cc1nc(N(C)C)nc(N(C)CCc2ccncc2)c1C	-15.2
Cn1ccc2c(-c3cc(N)nc(N4CCOCC4)n3)ccnc21	1.46
CCCc1nnc(N2CCN(c3ccccc3F)CC2)o1	13.5
Nc1nc(CCCNC(=O)C2CCCN(Cc3ccco3)C2)cs1 (configuration not stated)	8.32
O=C(C1CCCN(C2CCOCC2)C1)N1CCc2ncccc2C1 (configuration not stated)	-4.26
Cc1cccnc1CN1CCN(c2noc(-c3ccccc3)n2)CC1	7.94
CC(C)Nc1ccnc(N2Cc3cnc(C(C)(C)C)nc3C2)n1	17.3
CCC(C(=O)NC1CCN(S(C)(=O)=O)CC1)n1cccn1 (configuration not stated)	-7.66
CC(C)n1cnnc1CN1C(=O)CCc2ccccc21	-1.8

Structure (SMILES)	cytotoxicity at 70.5 h [%]
CCc1nc2c(c(N3CCOCC3)n1)CCN(C(=O)c1ccon1)CC2	6.74
Cc1nn(C)c(C)c1C(C)NC(=O)c1cc(CN2CCC(O)CC2)on1 (configuration not stated)	-5.78
CC(C)(C)c1ncc(C(=O)N2CCN(C(=O)c3ccc[nH]3)CC2)c(O)n1	-2.76
O=C(c1cccc(C2CCNC2)c1)N1CCC(N2CCC(O)CC2)CC1 (configuration not stated)	44.2
CC(C)[C@@H]1CN(C(=O)NCc2ccco2)C[C@H]1NS(=O)(=O)N(C)C	17.9
COc1ccccc1OCCn1c(C)c(C)oc1=O	23.3
CNc1nc(C(=O)N2C[C@H]3CC[C@@H]2CN(S(C)(=O)=O)C3)cs1	12
Cc1cc(C)nc(NC2CC(=O)N(C)C2)n1 (configuration not stated)	-8.75
Cc1ncsc1C(=O)N1CC[C@@]2(O)CCN(C(=O)N3CCCC3)C[C@H]2C1	12.8
COc1cc(F)ccc1C(C(=O)O)N(C)Cc1ccon1 (configuration not stated)	-7.03
CCCc1cnc(C)nc1NC(C)Cc1cnccn1 (configuration not stated)	-5.97
Cc1ccc(CN2CCCC(c3nnc(CN4CCCCC4)n3C)C2)s1 (configuration not stated)	4.84
Cc1cc2c(=O)n(CCSc3cnn[nH]3)cnc2s1	-12.3
CCC(C(=O)N1CCS(=O)(=O)CC1)n1cccn1 (configuration not stated)	-4.81
Cc1cccc2c1nc(CCO)n2-c1ccc(C(=O)N2CCCC2)o1	12.9
CCNC(=O)[C@@H]1C[C@H](N)CN1Cc1ccc(Sc2ccc(C)cc2)o1	-13.8
CCCc1nc(C(=O)NCCN2CCC(c3ccccc3C)C2)cs1 (configuration not stated)	0.739
CCC[C@H]1CN(C(=O)c2ccc3[nH]c(CO)nc3c2)C[C@@H]1N	-27.1
Cn1cc(C(=O)N2CCCC(c3ncc[nH]3)C2)cn1 (configuration not stated)	-7.17
CSCC(=O)NC1CC(=O)N(CCc2ccccc2)C1 (configuration not stated)	-10.9
CCCN1CCN(C(=O)c2ccc3nc(C)oc3c2)[C@H]2CS(=O)(=O)C[C@H]21	-7.59
COC(=O)c1ccc(C(=O)N2CCCC(Nc3ccc(F)cc3)C2)cc1 (configuration not stated)	-1.16
COc1ccc2c(c1)C(C(=O)NCCN1CCNC1=O)CC(=O)N2 (configuration not stated)	16.8
CC(C)N1CC(C(=O)N2CCN(CCn3cccc3)CC2)CC1=O (configuration not stated)	-3.03
Cn1nccc1C(=O)N1CCCC1c1ccc(C(=O)N2CCOCC2)s1 (configuration not stated)	0.297
OCC1(O)CCCN(Cc2nnc(-c3ccccc3)o2)CC1 (configuration not stated)	-7.78

Structure (SMILES)	cytotoxicity at 70.5 h [%]
c1csc(CN2CCc3c(CNc4nncs4)cncc3C2)c1	-9.12
c1cnc(NCc2cncc3c2CCN(Cc2cccnc2)C3)nc1	-5.03
Cc1cc(CN2C[C@@H]3COC[C@]3(CNS(C)(=O)=O)C2)no1	1.21
COCCN1C(=O)CC[C@@H]2[C@H]1CCN2Cc1ccc(C)s1	-11.5
Cc1cncc(C(=O)N2CCC3(CC2)NC(=O)CC3c2ccccc2)c1 (configuration not stated)	17.7
O=C(c1ccncc1F)N1CCc2ncnc(C3CC3)c2CC1	-1.77
Cc1cccc(CN2C(=O)CC[C@@H]3[C@H]2CCN3C(=O)c2ccsc2)n1	-12.3
CCS(=O)(=O)NC[C@]12COC[C@H]1CN(Cc1sccc1C)C2	-0.717
COCC1CN(C(=O)Cc2cccc(F)c2)Cc2ccnn2C1 (configuration not stated)	-5.69
O=C(c1ccsc1)N1C[C@@H]2CCN(c3cccnc3)C[C@@H]2C1	-6.89
CCn1cc2c(n1)CN(Cc1ccc(C)o1)CC2COCC1CC1 (configuration not stated)	-5.09
CCn1cc2c(n1)CN(Cc1sccc1C)CC2COCC1CC1 (configuration not stated)	-7.71
CN(C)C(=O)N1Cc2ncn(C)c2C(COCC2CCOCC2)C1 (configuration not stated)	-11.9
Cn1cncc1CN1C[C@@H]2OCCN(c3ncccn3)[C@@H]2C1	-9.56
O=C(c1ccc(O)cc1)N1C[C@@H]2CCN(c3cccnc3)C[C@@H]2C1	22.7
CC(C)CN1C(=O)C[C@@H]2[C@@H]1CCN2Cc1cccc(C#N)c1	2.48
CN(Cc1cccnc1)CC1CN(C(=O)C2CC2)Cc2nccn2C1 (configuration not stated)	-7.48
Cc1cccc(CN2C(=O)CC[C@H]3[C@@H]2CCN3CC(=O)N(C)C)n1	-7.14
Cn1cc(CN2C[C@@H]3OCCN(c4ncccn4)[C@@H]3C2)cn1	1.07
O=C1[C@H]2CN(Cc3ccoc3)C[C@H]2CN1Cc1cccnc1	-11.8
c1cnc(N2CCO[C@H]3CN(Cc4ccsc4)C[C@H]32)nc1	-14.2
COCC1CN(Cc2c(C)noc2C)Cc2ccnn2C1 (configuration not stated)	-9.74
c1ccc(COC[C@@H]2CCC[C@]23CN(Cc2nccs2)CCO3)nc1	5.78
c1ccc(CN2CCn3c(Cn4cncn4)cnc3C2)nc1	-10.2
COCCNC(=O)C1CN(Cc2cccnc2)Cc2ccnn2C1 (configuration not stated)	-13.8

— ChEMBL document CHEMBL3507680, “University of Dundee, Gates Library screen for HepG2 cell viability”
